{"source": "patent US20240270695A1", "about": "“COMPOUNDS, COMPOSITIONS AND METHODS OF TREATING DISORDERS” (Chengdu Anticancer Bioscience LTD, priority 2021, published 2024)", "key": {"[1]": {"system": "RPE-Neo or RPE-MYC or RPE-MYC expressing an EGFP-Histone 2B fusion protein", "assay": "MTT assays of cellular proliferation", "type": "cell-based", "conditions": "Homo sapiens, min. effective conc., read-out: Proliferative arrest (<50%)"}, "[2]": {"system": "RPE-Neo or RPE-MYC or RPE-MYC expressing an EGFP-Histone 2B fusion protein", "assay": "Phenotypic screening assay (arrest in mitosis, change in DNA content, cell death; GE IN-Cell Analyzer 2000)", "type": "cell-based", "conditions": "Homo sapiens, compounds 20 nM to 20 μM, 24, 48 or 72 hours"}, "[3]": {"conditions": "read-out: Min. Effective conc. for Polyploidy (≥10%)"}, "[4]": {"conditions": "min. effective conc., read-out: Cell Death (>30%)"}, "[5]": {"conditions": "min. effective conc., read-out: Mitotic Arrest (≥10%)"}}, "data": [{"smiles": "CNC(=O)C1=C(O)c2ccccc2N(Cc2ccc(F)c(C#N)c2)C(=O)C1", "note": "[Example 117, 1-(3-cyano-4-fluorobenzyl)-5-hydroxy-N-methyl-2-oxo-2,3-dihydro-1H-benzo[b]azepine-4-carboxamide]", "values": [{"measurement": "minimal effective concentration", "setting": "[1]", "value": "30 to 1000", "unit": "µM"}, {"measurement": "minimal effective concentration", "setting": "[2]; [3]", "value": "30 to 1000", "unit": "µM"}, {"measurement": "minimal effective concentration", "setting": "[2]; [4]", "value": "30 to 1000", "unit": "µM"}, {"measurement": "minimal effective concentration", "setting": "[2]; [5]", "value": "30 to 1000", "unit": "µM"}]}, {"smiles": "CNC(=O)C1CC(=O)N(Cc2ccc(C)c(C)c2)c2ccccc2C1=O", "note": "(stereo not drawn) [Example 100, 1-(3,4-dimethylbenzyl)-5-hydroxy-N-methyl-2-oxo-2,3-dihydro-1H-benzo[b]azepine-4-carboxamide]", "values": [{"measurement": "minimal effective concentration", "setting": "[1]", "value": "1 to 10", "unit": "µM"}, {"measurement": "minimal effective concentration", "setting": "[2]; [3]", "value": "1 to 10", "unit": "µM"}, {"measurement": "minimal effective concentration", "setting": "[2]; [4]", "value": "1 to 10", "unit": "µM"}, {"measurement": "minimal effective concentration", "setting": "[2]; [5]", "value": "1 to 10", "unit": "µM"}]}, {"smiles": "CNC(=O)C1=C(O)c2ccc(OCc3ccc(OC)c(F)c3)cc2N(Cc2ccc(C)c(F)c2)C(=O)C1", "note": "[Example 133, 8-((3-fluoro-4-methoxybenzyl)oxy)-1-(3-fluoro-4-methylbenzyl)-5-hydroxy-N-methyl-2-oxo-2,3-dihydro-1H-benzo[b]azepine-4-carboxamide]", "values": [{"measurement": "minimal effective concentration", "setting": "[1]", "value": "1 to 10", "unit": "µM"}, {"measurement": "minimal effective concentration", "setting": "[2]; [3]", "value": "1 to 10", "unit": "µM"}, {"measurement": "minimal effective concentration", "setting": "[2]; [4]", "value": "1 to 10", "unit": "µM"}, {"measurement": "minimal effective concentration", "setting": "[2]; [5]", "value": "1 to 10", "unit": "µM"}]}]}
